# Measurements: patent US20250170130A1, “MODULATORS OF MYC FAMILY PROTO-ONCOGENE PROTEIN” (Nalo Therapeutics, priority 2022, published 2025)
# How the values were obtained:
# MycC = target: T1, MycC (Homo sapiens, UniProt P01106); assay: Degradation of MycC protein in L363 cells, JESS/Western blot of lysates; type: cell-based; conditions: L-363 cells, 24 h; for Dmax at 1 µM / Dmax at 0.5 µM / Dmax at 3 µM / Dmax at 6 µM: L-363, 24 h; for Dmax at 1 µM: read-out: % Degradation of MycC (L-363) 24 h, 1 μM; for Dmax at 0.5 µM: read-out: % Degradation of MycC (L-363) 24 h, 0.5 μM; for Dmax at 3 µM: read-out: % Degradation of MycC (L-363) 24 h, 3 μM; for Dmax at 6 µM: read-out: % Degradation of MycC (L-363) 24 h, 6 μM
# T1 construct: endogenous in cells; host or cells: L363
# Method: For L363 cells (suspension), 1E6 cells were plated into each well of a 6 well plate. For SK-N-BE(2) cells (adherent), 5E5 cells were plated into each well of a 6 well dish. […] All compounds were diluted to 10 mM in DMSO. Cells were treated with the compound for 24 hrs, then for both cell types, media containing cells were removed from wells into a 15 ml centrifuge tube, and remaining adherent SK-N-BE(2) cells were also scraped from the wells into the appropriate tubes. Tubes were centrifuged, cells were washed with PBS then re-centrifuged to pellet cells. A RIPA buffer cocktail was added to the cells on ice for 5 mins. Cell lysates were clarified by centrifugation and stored at −80 degrees until required. BCA assay was performed on each lysate to determine the protein concentration.
# (§1) Once an appropriate lysate concentration and antibody concentration was determined, samples were screened in the JESS technology (Protein Simple, San Jose, CA—https://www.proteinsimple.com/jess.html).
# (§2) Target protein antibodies (n-myc and c-myc) were detected in the chemi-luminescence channel and loading controls (tubulin and GAPDH) were detected using a Near Infra Red (NIR) labeled secondary antibody.
# For SK-N-EB2 adherent cells, 5E5 cells in 1.9 mls media were plated into 6 well dishes and incubated for 24 hrs. […] Cells were scrapped off the plate, centrifuged, washed with PBS, centrifuged, then a RIPA buffer cocktail added to the cells (100 ul), centrifuged and stored at −80 for later analysis. For L363 suspension cells, 1E6 cells were plated into […] (950 ul media) and incubated for 24 hrs. […] Cells were aspirated into tubes, centrifuged, washed with PBS, centrifuged, then a RIPA buffer cocktail added to the cells (100 ul), centrifuged and stored at −80 for later analysis.
# (§3) For Western blot, a BCA (total protein) assay was run on all samples, these were then run in batches of 5 compounds plus control (DMSO) on each Western blot run—n-myc and c-myc were run in separate experiments in the chemiluminescence channel. Both tubulin and GAPDH were run as loading controls in all lanes in the near infra red channel.
# MycN = target: T2, MycN (Homo sapiens, UniProt P04198); assay: Degradation of MycN protein in SK-N-BE(2) cells, JESS/Western blot of lysates; type: cell-based; conditions: SKNBE2 cells, 24 h; for Dmax at 1 µM / Dmax at 3 µM / Dmax at 6 µM / Dmax at 0.5 µM: SKNBE2, 24 h; for Dmax at 1 µM: read-out: % Degradation of MycN (SKNBE2) 24 h, 1 μM; for Dmax at 3 µM: read-out: % Degradation of MycN (SKNBE2) 24 h, 3 μM; for Dmax at 6 µM: read-out: % Degradation of MycN (SKNBE2) 24 h, 6 μM; for Dmax at 0.5 µM: read-out: % Degradation of MycN (SKNBE2) 24 h, 0.5 μM
# T2 construct: endogenous in cells; host or cells: SK-N-BE(2)
# T2 sequence (P04198 1-464): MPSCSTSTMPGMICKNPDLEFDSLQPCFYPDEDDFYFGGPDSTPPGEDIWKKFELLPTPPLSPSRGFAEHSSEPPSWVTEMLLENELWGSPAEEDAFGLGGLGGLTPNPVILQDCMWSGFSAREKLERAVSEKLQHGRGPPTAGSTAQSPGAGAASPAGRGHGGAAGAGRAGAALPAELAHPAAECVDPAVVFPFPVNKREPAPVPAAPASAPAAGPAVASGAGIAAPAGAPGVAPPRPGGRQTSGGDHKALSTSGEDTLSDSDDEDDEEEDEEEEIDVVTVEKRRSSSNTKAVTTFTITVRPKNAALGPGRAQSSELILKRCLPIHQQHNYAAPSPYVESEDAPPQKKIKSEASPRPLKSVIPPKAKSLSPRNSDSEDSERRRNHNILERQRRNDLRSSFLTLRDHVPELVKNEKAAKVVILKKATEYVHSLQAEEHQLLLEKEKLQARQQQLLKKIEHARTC
# Method: For L363 cells (suspension), 1E6 cells were plated into each well of a 6 well plate. For SK-N-BE(2) cells (adherent), 5E5 cells were plated into each well of a 6 well dish. Cells were cultured for 24 hrs then treated with exemplary compounds at […] final assay concentrations plus DMSO control. All compounds were diluted to 10 mM in DMSO. Cells were treated with the compound for 24 hrs, then for both cell types, media containing cells were removed from wells into a 15 ml centrifuge tube, and remaining adherent SK-N-BE(2) cells were also scraped from the wells into the appropriate tubes. Tubes were centrifuged, cells were washed with PBS then re-centrifuged to pellet cells. A RIPA buffer cocktail was added to the cells on ice for 5 mins. Cell lysates were clarified by centrifugation and stored at −80 degrees until required. BCA assay was performed on each lysate to determine the protein concentration.
# as §1, §2
# For SK-N-EB2 adherent cells, 5E5 cells in 1.9 mls media were plated into 6 well dishes and incubated for 24 hrs. Exemplary compounds were added (100 ul, 1 in 20 dilution in media) to each well (final assay concentration 6, 3, 1 and […]) together with DMSO control wells and incubated for 24 hrs. Cells were scrapped off the plate, centrifuged, washed with PBS, centrifuged, then a RIPA buffer cocktail added to the cells (100 ul), centrifuged and stored at −80 for later analysis. For L363 suspension cells, 1E6 cells were plated into 24 well dishes (950 ul media) and incubated for 24 hrs. Exemplary compounds were added (50 ul, 1 in 20 dilution in media) to each well (final assay concentration 6, 3, 1 and […]) together with DMSO control wells and incubated for 24 hrs. Cells were aspirated into tubes, centrifuged, washed with PBS, centrifuged, then a RIPA buffer cocktail added to the cells (100 ul), centrifuged and stored at −80 for later analysis.
# as §3
# T1 sequence (P01106 whole entry): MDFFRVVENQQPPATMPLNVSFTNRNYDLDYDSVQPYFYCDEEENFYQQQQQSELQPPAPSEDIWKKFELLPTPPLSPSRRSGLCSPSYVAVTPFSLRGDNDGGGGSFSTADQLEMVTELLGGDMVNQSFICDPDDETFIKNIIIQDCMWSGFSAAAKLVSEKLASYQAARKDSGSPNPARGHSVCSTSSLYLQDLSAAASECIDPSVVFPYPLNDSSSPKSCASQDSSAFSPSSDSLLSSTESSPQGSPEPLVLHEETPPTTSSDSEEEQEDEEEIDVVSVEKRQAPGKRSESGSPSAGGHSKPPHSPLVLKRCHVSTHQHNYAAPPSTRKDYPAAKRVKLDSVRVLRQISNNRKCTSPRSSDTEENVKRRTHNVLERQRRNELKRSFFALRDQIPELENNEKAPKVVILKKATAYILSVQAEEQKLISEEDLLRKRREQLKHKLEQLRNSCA
SMILES,Dmax at 1 µM (MycN),Dmax at 3 µM (MycN),Dmax at 6 µM (MycN),Dmax at 0.5 µM (MycN),"% Degradation of MycC (L-363) 24 h, 0.5 μM (MycC; 0.5 μM)","% Degradation of MycC (L-363) 24 h, 6 μM (MycC; 6 μM)","% Degradation of MycN (SKNBE2) 24 h, 6 μM (MycN)",Dmax at 1 µM (MycC),Dmax at 0.5 µM (MycC; 0.5 μM),Dmax at 3 µM (MycC),Dmax at 6 µM (MycC; 6 μM)
"c1cc(Nc2cc(C3CC3)[nH]n2)nc(N2CCC(C3CNC3)C2)n1 (racemic) [Compound 39, (±)-2-[3-(azetidin-3-yl)pyrrolidin-1-yl]-N-(5-cyclopropyl-1H-pyrazol-3-yl)pyrimidin-4-amine]",< 20%,20 to 49%,20 to 49%,,,,,20 to 49%,,,
"c1cc(Nc2cc(C3CC3)[nH]n2)nc(N2C[C@H]3CNC[C@@H]3C2)n1 (racemic) [Compound 50, N-(5-Cyclopropyl-1H-pyrazol-3-yl)-2-[rac-(3aR,6aR)-2,3,3a,4,6,6a-hexahydro-1H-pyrrolo[3,4-c]pyrrol-5-yl]pyrimidin-4-amine]",20 to 49%,50 to 79%,80 to 100%,20 to 49%,,,,< 20%,20 to 49%,20 to 49%,50 to 79%
"CN(C)C[C@H]1CCN(c2nccc(Nc3cc(C4CC4)[nH]n3)n2)C1 (stereo in doubt) [Compound 32, N-(5-cyclopropyl-1H-pyrazol-3-yl)-2-[rac-(3R)-3-[(dimethylamino)methyl]pyrrolidin-1-yl]pyrimidin-4-amine]",20 to 49%,50 to 79%,50 to 79%,20 to 49%,,,,< 20%,,,< 20%
"CN(C)C[C@@H]1CCN(c2nccc(Nc3cc(C4CC4)[nH]n3)n2)C1 (stereo in doubt) [Compound 33, N-(5-Cyclopropyl-1H-pyrazol-3-yl)-2-[rac-(3S)-3-[(dimethylamino)methyl]pyrrolidin-1-yl]pyrimidin-4-amine]",20 to 49%,50 to 79%,50 to 79%,20 to 49%,,,,,,,
"CNC1CC2(C1)CN(c1nccc(Nc3cc(C4CC4)[nH]n3)n1)C2 [Compound 1, 2-(4-((5-cyclopropyl-1H-pyrazol-3-yl)amino)pyrimidin-2-yl)-N-methyl-2-azaspiro[3.3]heptan-6-amine]",,< 20%,50 to 79%,,,,,,,,20 to 49%
"c1cc(Nc2cc(C3CC3)[nH]n2)nc(N2CCC3(CNC3)C2)n1 [Compound 2, N-(5-cyclopropyl-1H-pyrazol-3-yl)-2-(2,6-diazaspiro[3.4]octan-6-yl)pyrimidin-4-amine]",< 20%,< 20%,50 to 79%,< 20%,,,,20 to 49%,20 to 49%,20 to 49%,20 to 49%
"CN1CC2(CCN(c3nccc(Nc4cc(C5CC5)[nH]n4)n3)C2)C1 [Compound 3, N-(5-cyclopropyl-1H-pyrazol-3-yl)-2-(2-methyl-2,6-diazaspiro[3.4]octan-6-yl)pyrimidin-4-amine]",< 20%,< 20%,50 to 79%,< 20%,,,,20 to 49%,< 20%,,80 to 100%
"CNCCCNc1nccc(Nc2cc(C3CC3)[nH]n2)n1 [Compound 34, N^4-(5-cyclopropyl-1H-pyrazol-3-yl)-N^2-[3-(methylamino)propyl]pyrimidine-2,4-diamine]",,,< 20%,,,,,,,,
"CN1CC(C2CN(c3nccc(Nc4cc(C5CC5)[nH]n4)n3)C2)C1 [Compound 46, N-(5-Cyclopropyl-1H-pyrazol-3-yl)-2-[3-(1-methylazetidin-3-yl)azetidin-1-yl]pyrimidin-4-amine]",,,< 20%,,,,,,,,
"CN1C[C@@H]2CN(c3nccc(Nc4cc(C5CC5)[nH]n4)n3)C[C@@H]21 [Compound 52, N-(5-cyclopropyl-1H-pyrazol-3-yl)-2-[(1R,5R)-6-methyl-3,6-diazabicyclo[3.2.0]heptan-3-yl]pyrimidin-4-amine]",,,< 20%,,,,,,,,

# Second part, led by results:
Dmax at 1 µM (MycN),Dmax at 3 µM (MycN),Dmax at 6 µM (MycN),Dmax at 0.5 µM (MycN),"% Degradation of MycC (L-363) 24 h, 0.5 μM (MycC; 0.5 μM)","% Degradation of MycC (L-363) 24 h, 6 μM (MycC; 6 μM)","% Degradation of MycN (SKNBE2) 24 h, 6 μM (MycN)",SMILES,Dmax at 1 µM (MycC),Dmax at 0.5 µM (MycC; 0.5 μM),Dmax at 3 µM (MycC),Dmax at 6 µM (MycC; 6 μM)
,,80 to 100%,,** (degradation 20-49%),**** (degradation 80-100%),**** (degradation 80-100%),"CC(N)C1CCCN(c2nccc(Nc3cc(C4CC4)[nH]n3)n2)C1 (single isomer, unassigned) [Compound 159, 2-[3-(1-Aminoethyl)-1-piperidyl]-N-(5-cyclopropyl-1H-pyrazol-3-yl)pyrimidin-4-amine]",,20 to 49%,,80 to 100%
20 to 49%,,80 to 100%,20 to 49%,,,**** (degradation 80-100%),"CNC(C)C1CCCN(c2nccc(Nc3cc(C4CC4)[nH]n3)n2)C1 (single isomer, unassigned) [Compound 162, N-(5-Cyclopropyl-1H-pyrazol-3-yl)-2-[3-[1-(methylamino)ethyl]-1-piperidyl]pyrimidin-4-amine]",20 to 49%,20 to 49%,20 to 49%,
< 20%,,20 to 49%,,,,,OC1CN(CC23CC(C2)N(c2nccc(Nc4cc(C5CCCC5)[nH]n4)n2)C3)C1 [Compound 70],,,,
20 to 49%,50 to 79%,80 to 100%,20 to 49%,,,,"CS(=O)(=O)CCCNCC12CC(C1)N(c1nccc(Nc3cc(C4CCCC4)[nH]n3)n1)C2 [Compound 74, N-(5-Cyclopentyl-1H-pyrazol-3-yl)-2-[4-[(3-methylsulfonylpropylamino)methyl]-2-azabicyclo[2.1.1]hexan-2-yl]pyrimidin-4-amine]",,,,
20 to 49%,50 to 79%,50 to 79%,20 to 49%,,,,"CNC[C@H]1CN(c2nccc(Nc3cc(C4CCCC4)[nH]n3)n2)CCO1 [Compound 190, N-(5-Cyclopentyl-1H-pyrazol-3-yl)-2-[(2S)-2-(methylaminomethyl)morpholin-4-yl]pyrimidin-4-amine]",,,,
